Broadly, the IC50 is the concentration that gives 50% inhibition.

The results in this text go back to patent US4857524A, “Thiazolidine compounds and therapeutic method” (Kissei Pharmaceutical Co., Ltd., priority 1987, dated 1989).

Square brackets hold non-standard residues; d marks the D form. Peptide text beside a SMILES is read from it. * marks the point of attachment. Thz = O=C(O)[C@@H]1CSCN1; Cbz = O=C(OCc1ccccc1)*

The experiment has as its target T1, prolyl endopeptidase (Bos taurus, UniProt Q9XTA2).
T1 construct: the enzyme purified from bovine brain; from tissue; host or cells: bovine brain
T1 sequence (Q9XTA2 1-710): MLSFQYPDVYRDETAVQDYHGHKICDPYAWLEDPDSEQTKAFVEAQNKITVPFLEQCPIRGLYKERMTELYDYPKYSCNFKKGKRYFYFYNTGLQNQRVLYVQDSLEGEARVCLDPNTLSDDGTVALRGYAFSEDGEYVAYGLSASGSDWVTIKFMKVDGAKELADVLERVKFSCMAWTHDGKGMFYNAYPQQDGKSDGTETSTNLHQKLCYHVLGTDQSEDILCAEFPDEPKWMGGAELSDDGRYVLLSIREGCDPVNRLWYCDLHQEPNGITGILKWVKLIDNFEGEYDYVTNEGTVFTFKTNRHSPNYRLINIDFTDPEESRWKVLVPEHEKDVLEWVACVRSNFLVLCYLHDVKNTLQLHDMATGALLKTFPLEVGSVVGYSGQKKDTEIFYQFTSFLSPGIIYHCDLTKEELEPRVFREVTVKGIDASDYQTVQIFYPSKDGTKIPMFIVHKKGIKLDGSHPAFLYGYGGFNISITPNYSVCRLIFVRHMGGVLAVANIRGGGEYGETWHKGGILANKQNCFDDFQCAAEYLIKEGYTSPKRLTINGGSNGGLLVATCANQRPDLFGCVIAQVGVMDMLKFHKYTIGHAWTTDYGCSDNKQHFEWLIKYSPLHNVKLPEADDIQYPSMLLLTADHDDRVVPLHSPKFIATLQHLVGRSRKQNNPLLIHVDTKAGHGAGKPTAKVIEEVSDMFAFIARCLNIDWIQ
As to the kind of experiment: Inhibitory Effect for Prolyl Endopeptidase (enzyme purified from bovine brain). The format is biochemical. On the procedure: To 0.5 ml of the supernatant was added 0.5 ml of 0.1% sodium nitrite aqueous solution, and after 3 minutes, 0.5 ml of 0.5% ammonium sulfamate and 1 ml of 0.05% N-(1-naphthyl)ethylenediamine dihydrochloride in ethanol were further added . The mixture was left for 25 minutes at 37° C., and the absorbance was measured at 570 nm.
The unit of the enzyme activity (μmol/min/ml)=ΔOD×0.42×a dilution factor
On to `O=C([C@@H]1CSCN1C(=O)C=Cc1ccccc1)N1CCCC1` [Compound Q, 1-[(R)-(-)-3-Cinnamoylthiazolidine-4-carbonyl]pyrrolidine], for which the half-inhibitory concentration (IC50) was 4600 nM. This counts as single-digit micromolar.
The compound `O=C([C@@H]1CSCN1C(=O)CCc1ccccc1)N1CCSC1` [Compound H, 33-[(R)-(-)-3-(3-Phenylpropionyl)thiazolidine-4-carbonyl]thiazolidine] yielded an IC50 of 400 nM.
In the case of `COC(=O)[C@@H]1CCCN1C(=O)[C@@H]1CSCN1C(=O)OCc1ccccc1` [Compound B, (S)-(-)-N-[(R)-(-)-3-Benzyloxycarbonylthiazolidine-4-carbonyl]pyrrolidine-2-carboxylic acid methyl ester] (Cbz-[Thz]-Pro-OMe), the concentration for half-maximal inhibition (IC50) was found to be 72000 nM.
`O=C([C@@H]1CSCN1C(=O)OCc1ccccc1)N1CCSCC1` [Compound F, N-[(R)-(-)-3-Benzyloxycarbonylthiazolidine-4-carbonyl]thiomorpholine] displayed an IC50 of 230000 nM. Compared with the last compound, the IC50 is about 3.2-fold higher.
Then `O=C([C@@H]1CSCN1C(=O)Cc1ccccc1)N1CCCC1` [Compound O, 1-[(R)-(-)-3-Phenylacetylthiazolidine-4-carbonyl]pyrrolidine], with 660 nM; and `O=C([C@@H]1CSCN1C(=O)OCc1ccccc1)N1CCSC1` [Compound A, 3-[(R)-(-)-3-Benzyloxycarbonylthiazolidine-4-carbonyl]thiazolidine], with 0.26 nM.
Then `O=C([C@@H]1CSCN1C(=O)C=Cc1ccccc1)N1CCSC1` [Compound P, 3-[(R)-(-)-3-Cinnamoylthiazolidine-4-carbonyl]thiazolidine], with 3240 nM.
As for `COC(=O)[C@@H]1CSCN1C(=O)[C@@H]1CSCN1C(=O)OCc1ccccc1` [Compound G, (R)-(-)-3-[(R)-(-)-3-Benzyloxycarbonylthiazolidine-4-carbonyl]thiazolidine-4-carboxylic acid methyl ester] (Cbz-[Thz]-[Thz]-OMe), it took 210 nM to reach half-maximal inhibition (IC50).
The figure for `O=C([C@@H]1CSCN1C(=O)c1ccncc1)N1CCSC1` [Compound U, 3-[(R)-(-)-3-Isonicotinoylthiazoidine-4-carbonyl]thiazolidine] is 1300 nM; for `O=C([C@@H]1CSCN1C(=O)Cc1ccccc1)N1CCSC1` [Compound N, 3-[(R)-(-)-3-Phenylacetylthiazolidine-4-carbonyl]thiazolidine] it is 63.1 nM.
